Measurements as given in patent US20040258633A1, “Composition containing monoterpenes for topical oral administration” (Gisol Ltd., priority 2000, published 2004).

assay: Example 5 salt solution mouth wash, periodontal index (PI); assay type: in vivo; details: 10% salt solution mouth wash, 30 seconds, twice a day, for a week; point of origin = 1
Experimental: Using solutions having a concentration of 10% the salts presented in table 3 below were applied after tooth brushing, in the form of a mouth wash. The mouth wash was applied for 30 seconds, twice a day, for a week. The following results were measured according to the periodontal index (PI): […]

Row | SMILES | PI (periodontal index)
1 | [Cl-].[K+] [Kcl] | 1.47
2 | [Br-].[Br-].[Mg+2] [MgBr2] | 1.58
3 | [Cl-].[Na+] [NaCl] | 1.32
